The values below come from patent US8097759B2, “Inflammatory cytokine release inhibitor” (Institute of Medicinal Molecular Design, Inc., priority 2000, dated 2012).

In this experiment the test system is NF-κB activation. In words: NF-κB activation reporter assay (pNFκB-Luc luciferase) under TNF-α stimulation. It counts as cell-based, human. The note with it: HepG2 or HeLa cells, TNF-α 40 ng/ml, 4 hours; for inhibition at 1 µg/mL / inhibition at 10 µg/mL: Homo sapiens, read-out: The rate of inhibitory activity against NF-κB activation (%). The protocol:
Using a transfection reagent (Effectene; QIAGEN), the human hepatoma cell strain HepG2 or the human hysterocarcinoma cell strain HeLa was transfected with the firefly luciferase gene (Luc) contained plasmid (pNF κB-Luc Reporter Plasmid; […]) which contained oligonucleotide having five tandem copies of NF-κB binding sequences ([…]) on a upstream region of Luc, according to the QUAGEN's protocol and it was incuvated for 6-24 hours. After addition of TNF-α (40 ng/ml) with or without the test compound, the cells were incuvated for 4 hours, and intracellular luciferase activity was measured with PicaGene LT (TOYO INK MFG Co., Ltd.) and chemical luminescence measurement device ([…]luor Plus; TECAN). The inhibition ratio was measured as a ratio to the value of the luciferase activity without the test compound.
On the technique in general: Reporter assays use an easily measured gene product as a stand-in for the process of interest.

Setting [1] is: Concentration of the agent: 1 μg/mL.
[2] abbreviates: Concentration of the agent: 10 μg/mL.

As to `O=C(Nc1cc(C(F)(F)F)cc(C(F)(F)F)c1)c1cc(C=Cc2ccccc2)ccc1O` [Compound 63], under setting [1], the inhibition at 1 µg/mL came to 95.5%. For the same compound, the inhibition at 10 µg/mL under setting [2] was 96.9%.
Taken in the same sequence, the figures for `C#Cc1ccc(O)c(C(=O)Nc2cc(C(F)(F)F)cc(C(F)(F)F)c2)c1` [Compound 64] were 53.3% and 90.1%.
Taken in the same sequence, the figures for `C[Si](C)(C)C#Cc1ccc(O)c(C(=O)Nc2cc(C(F)(F)F)cc(C(F)(F)F)c2)c1` [Compound 66] were 91.1% and 94.9%.
As for `O=C(Nc1cc(C(F)(F)F)cc(C(F)(F)F)c1)c1cc(-c2ccccc2)ccc1O` [Compound 67], the inhibition at 1 µg/mL under setting [1] turned out to be 91.8%. Besides, the inhibition at 10 µg/mL under setting [2] is 96.8%.
As to `O=C(Nc1cc(C(F)(F)F)cc(C(F)(F)F)c1)c1cc(C(F)(F)F)ccc1O` [Compound 69], the inhibition at 1 µg/mL under setting [1] stood at 96.4%. The inhibition at 10 µg/mL under setting [2] turned out to be 99.6%.
The corresponding values for `O=C(Nc1cc(C(F)(F)F)cc(C(F)(F)F)c1)c1cc(C(F)(F)C(F)(F)F)ccc1O` [Compound 70] are 93.3% and 95.4%.
Taken in the same sequence, the figures for `O=C(Nc1cc(C(F)(F)F)cc(C(F)(F)F)c1)c1cc(-n2cccc2)ccc1O` [Compound 71] were 93.8% and 97.9%.
The corresponding values for `O=C(Nc1cc(C(F)(F)F)cc(C(F)(F)F)c1)c1cc(-c2cccs2)ccc1O` [Compound 72] are 79.5% and 97.8%.
Take `O=C(Nc1cc(C(F)(F)F)cc(C(F)(F)F)c1)c1cc(-c2ccsc2)ccc1O` [Compound 73]: the inhibition at 1 µg/mL under setting [1] came out at 81.7%. The inhibition at 10 µg/mL under setting [2] was 92.9%.
Taken in the same sequence, the figures for `COc1ccc(O)c(C(=O)Nc2cc(C(F)(F)F)cc(C(F)(F)F)c2)c1` [Compound 77] were 30.7% and 97%.
For the compound `O=C(Nc1cc(C(F)(F)F)cc(C(F)(F)F)c1)c1ccc(O)c(C(=O)Nc2cc(C(F)(F)F)cc(C(F)(F)F)c2)c1` [Compound 82], under setting [1], the inhibition at 1 µg/mL is -8.7%. The inhibition at 10 µg/mL under setting [2] was found to be 94.5%.
The corresponding values for `O=C(Nc1ccc(O)c(C(=O)Nc2cc(C(F)(F)F)cc(C(F)(F)F)c2)c1)c1ccccc1` [Compound 90] are 1% and 63.4%.
The corresponding values for `O=C(Nc1ccccc1)Nc1ccc(O)c(C(=O)Nc2cc(C(F)(F)F)cc(C(F)(F)F)c2)c1` [Compound 91] are 20.5% and 88.4%.
The corresponding values for `O=C(Nc1cc(C(F)(F)F)cc(C(F)(F)F)c1)c1cc(NC(=S)Nc2ccccc2)ccc1O` [Compound 92] are 51.8% and 97.2%.
On to `O=C(Nc1cc(C(F)(F)F)cc(C(F)(F)F)c1)c1cc(N=Nc2ccc([N+](=O)[O-])cc2)ccc1O` [Compound 93], for which, under setting [1], the inhibition at 1 µg/mL came out at 96.2%. Under setting [2], the inhibition at 10 µg/mL is 98.7%.
For the compound `CC(=O)Oc1ccccc1C(=O)Nc1cc(C(F)(F)F)cc(C(F)(F)F)c1` [Compound 95, 2-Acetoxy-[3,5-bis(trifluoromethyl)phenyl]benzamide], the “The rate of inhibitory activity against NF-κB activation (%)” value is, setting by setting: under setting [1], 90.9%; under setting [2], 97.1%.
Turning to `CC(=O)Oc1ccc(Cl)cc1C(=O)Nc1cc(C(F)(F)F)cc(C(F)(F)F)c1` [Compound 96], the inhibition at 1 µg/mL under setting [1] amounted to 96.5%. Moreover, the inhibition at 10 µg/mL under setting [2] came out at 99.2%.
As for `CC(=O)Nc1cc(O)c(C(=O)Nc2cc(C(F)(F)F)cc(C(F)(F)F)c2)cc1Cl` [Compound 97], under setting [1], the inhibition at 1 µg/mL was found to be 69.9%. Further, the inhibition at 10 µg/mL under setting [2] amounted to 96%.
Taken in the same sequence, the figures for `O=C(Nc1cc(C(F)(F)F)cc(C(F)(F)F)c1)c1ccc(Cl)cc1O` [Compound 98] were 90.5% and 98.2%.
The corresponding values for `O=C(Nc1cc(C(F)(F)F)ccc1C(F)(F)F)c1cc(Br)ccc1O` [Compound 101] are 95.7% and 98.3%.
The corresponding values for `O=C(Nc1ccccc1C(F)(F)F)c1cc(Cl)ccc1O` [Compound 104] are 76.2% and 96.9%.
On to `O=C(Nc1cccc(C(F)(F)F)c1)c1cc(Br)ccc1O` [Compound 106], for which the inhibition at 1 µg/mL under setting [1] was 80.7%. Further, the inhibition at 10 µg/mL under setting [2] is 93.3%.
Regarding `O=C(Nc1cccc(C(F)(F)F)c1F)c1cc(Cl)ccc1O` [Compound 107], the inhibition at 1 µg/mL under setting [1] was determined as 92.3%. For the same compound, the inhibition at 10 µg/mL under setting [2] is 95%.
Taken in the same sequence, the figures for `O=C(Nc1ccc(F)c(C(F)(F)F)c1)c1cc(Cl)ccc1O` [Compound 108] were 94.7% and 97.6%.
As for `O=C(Nc1ccc(Cl)c(C(F)(F)F)c1)c1cc(Br)ccc1O` [Compound 109], the inhibition at 1 µg/mL under setting [1] stood at 83%. In addition, the inhibition at 10 µg/mL under setting [2] was determined as 88.8%.
As for `O=C(Nc1cc(F)cc(C(F)(F)F)c1)c1cc(Cl)ccc1O` [Compound 110], the inhibition at 1 µg/mL under setting [1] was 94.7%. For the same compound, under setting [2], the inhibition at 10 µg/mL worked out at 98.9%.
Taken in the same sequence, the figures for `O=C(Nc1cc(C(F)(F)F)ccc1F)c1cc(Cl)ccc1O` [Compound 112] were 93.1% and 95.9%.
The corresponding values for `O=C(Nc1cc(C(F)(F)F)ccc1Cl)c1cc(Cl)ccc1O` [Compound 113] are 94.8% and 97.1%.
The corresponding values for `O=C(Nc1cc(C(F)(F)F)ccc1Cl)c1cc(Br)ccc1O` [Compound 114] are 88.9% and 94.1%.
For the compound `O=C(Nc1ccc([N+](=O)[O-])c(C(F)(F)F)c1)c1cc(Cl)ccc1O` [Compound 115], the inhibition at 1 µg/mL under setting [1] worked out at 89%. Further, under setting [2], the inhibition at 10 µg/mL worked out at 94.3%.
The corresponding values for `O=C(Nc1cc(C(F)(F)F)ccc1[N+](=O)[O-])c1cc(Cl)ccc1O` [Compound 116] are 86.3% and 96.7%.
`Cc1c(NC(=O)c2cc(Cl)ccc2O)cccc1C(F)(F)F` [Compound 118]: under setting [1], the inhibition at 1 µg/mL was found to be 94.1%. Moreover, the inhibition at 10 µg/mL under setting [2] came to 96.3%.
Consider `Cc1ccc(NC(=O)c2cc(Cl)ccc2O)cc1C(F)(F)F` [Compound 119], for which, under setting [1], the inhibition at 1 µg/mL was determined as 88.1%. Further, the inhibition at 10 µg/mL under setting [2] came to 91.7%.
Taken in the same sequence, the figures for `Cc1ccc(C(F)(F)F)cc1NC(=O)c1cc(Cl)ccc1O` [Compound 120] were 93.8% and 97.9%.
The corresponding values for `COc1ccc(NC(=O)c2cc(Cl)ccc2O)cc1C(F)(F)F` [Compound 121] are 85.5% and 96.5%.
Taken in the same sequence, the figures for `COc1cc(NC(=O)c2cc(Br)ccc2O)cc(C(F)(F)F)c1` [Compound 122] were 84.5% and 97.2%.
For the compound `COc1ccc(C(F)(F)F)cc1NC(=O)c1cc(Br)ccc1O` [Compound 123], the inhibition at 1 µg/mL under setting [1] worked out at 76.6%. The inhibition at 10 µg/mL under setting [2] came out at 93.4%.
Taken in the same sequence, the figures for `CSc1ccc(C(F)(F)F)cc1NC(=O)c1cc(Cl)ccc1O` [Compound 125] were 94.6% and 99.1%.
The corresponding values for `O=C(Nc1cc(C(F)(F)F)ccc1N1CCCC1)c1cc(Br)ccc1O` [Compound 126] are 95.8% and 97.8%.
The corresponding values for `O=C(Nc1cc(C(F)(F)F)ccc1N1CCOCC1)c1cc(Br)ccc1O` [Compound 127] are 81.8% and 86.4%.
Regarding `O=C(Nc1ccc(C(F)(F)F)cc1)c1cc(Cl)ccc1O` [Compound 128], the inhibition at 1 µg/mL under setting [1] stood at 87.2%. The inhibition at 10 µg/mL under setting [2] worked out at 95%.
With `O=C(Nc1ccc(C(F)(F)F)cc1Cl)c1cc(Br)ccc1O` [Compound 129], the inhibition at 1 µg/mL under setting [1] was 75.4%. In addition, the inhibition at 10 µg/mL under setting [2] was 85.8%.
For `O=C(Nc1ccccc1)c1cc(Br)ccc1O` [Compound 139], under setting [1], the inhibition at 1 µg/mL is -48.2%. Further, the inhibition at 10 µg/mL under setting [2] was 60.2%.
Taken in the same sequence, the figures for `O=C(Nc1cccc(Cl)c1)c1cc(Br)ccc1O` [Compound 140] were 94.2% and 96.7%.
The corresponding values for `O=C(Nc1ccc(Cl)cc1)c1cc(Br)ccc1O` [Compound 141] are 83.3% and 96.4%.
Regarding `O=C(Nc1cc(Cl)ccc1Cl)c1cc(Cl)ccc1O` [Compound 142], the inhibition at 1 µg/mL under setting [1] stood at 95.1%. The inhibition at 10 µg/mL under setting [2] came out at 96.9%.
The corresponding values for `O=C(Nc1ccc(Cl)c(Cl)c1)c1cc(Br)ccc1O` [Compound 143] are 91.6% and 93.8%.
Taken in the same sequence, the figures for `O=C(Nc1cc(F)cc(F)c1)c1cc(Br)ccc1O` [Compound 144] were 91.8% and 96.8%.
Turning to `O=C(Nc1cc(Cl)cc(Cl)c1)c1ccccc1O` [Compound 145], the inhibition at 1 µg/mL under setting [1] was 92.9%. For the same compound, the inhibition at 10 µg/mL under setting [2] stood at 95.5%.
The corresponding values for `O=C(Nc1cc(Cl)cc(Cl)c1)c1cc(F)ccc1O` [Compound 146] are 94.2% and 97%.
The corresponding values for `O=C(Nc1cc(Cl)cc(Cl)c1)c1cc(Cl)ccc1O` [Compound 147] are 84.5% and 96.8%.
